In assay [1] the target is T1, WDR5 (Homo sapiens, UniProt P61964). As to the kind of experiment: Fluorescence Polarization (FP) binding assay. As for the experimental part: H3 (1-15) ([…]), and 9-Ala-FAM ((Ac)-[…]-(Ahx-Ahx)-K(5,6-FAM)) (where Ahx represents 6 amino hexanoic acid linkers) peptides for WDR5 were synthesized, N-terminal-labeled with isothiocyanate-fluorescein, and purified by Tufts University Core Services (Boston, Mass.). Compound binding assays were performed at a constant labeled peptide concentration of 30 or 20 nM for H3 (1-15) and 9-Ala-FAM respectively. WDR5 concentrations of 0.3 μM for H3 (1-15) and 0.05 μM for 9-Ala-FAM were used. For both the H3 (1-15) and 9-Ala-FAM peptides, 80 mM sodium phosphate buffer (pH 6.5), 20 mM KCl, and 0.008% Triton X-100 was used. For the H3 (1-15) peptide, FP assays were measured in 10 μl aliquots in 384-well Axygen plates using a Synergy 4 microplate reader (BioTek) with an excitation wavelength of 485 nm and emission wavelength of 528 nm. For the 9-Ala-FAM peptide, FP assays were measured in 125 μl aliquots in 96 well Microfluor plates using a ViewLux instrument (Perkin Elmer) with an excitation wavelength of 480 nm and emission wavelength of 540 nm. To determine Kdsp values, the data were fit to a hyperbolic function using Sigma Plot software (Systat Software). The Kdisp values represent the average of quadruplicate measurements.
In general terms: Polarisation of emitted light reports the rotation of a fluorescent probe.

In a further assay the test system is MV4-11 cells. As to the kind of experiment: Cell proliferation assay (ATPlite). The assay is classed as cell-based. As to conditions: Homo sapiens, 120 h; MV4-11 cells, five days; read-out: GI MV411 EC50. As to the method:
MV4-11 cells were seeded into a 96-well plate at 1,000 cells/well in 150 μl medium (Alpha-MEM containing 10% FBS, 100 μg/ml Normocin, and 50 μg/ml Gentamycin, Invitrogen). A HP D300 digital dispenser was used to dose cells with DMSO or test compounds across a 10-point range of concentrations (high dose of 10 μM), and cultures were grown in a humidified 5% CO2 incubator at 37° C. After five days, plates were removed from incubator and equilibrated to room temperature. An equal volume of ATPlite assay reagent was added to each well, and samples were processed according to manufacturer's instructions (Perkin Elmer). Luminescent signal was measured using an Envision plate reader equipped with a US-Luminescence detector.
For orientation: In ATP-based viability assays light output follows the ATP content of the culture.

For assay [2], the target named is T1, WDR5. As to the kind of experiment: Surface Plasmon Resonance (SPR) assay. The assay is classed as binding. More on the design: Full length WDR5 with an N-terminal His tag and C-terminal AviTag; His tag (N); made in house; host or cells: E. coli. As to conditions: read-out: SPR Kd. As for the experimental part: Exemplary compounds of the application were dissolved in 100% DMSO at 10 mM, assayed fresh, and then stored at −20° C. for repeat studies and other experiments. Full length WDR5 with an N-terminal His tag and C-terminal AviTag (Avidity Inc.) was expressed in E. coli with coexpression of BirA to biotin label the protein in vivo. Purification was via Ni-NTA.
SPR studies were performed using a Biacore™ T200 instrument (GE Health Sciences Inc.). Biotinylated WDR5 protein (approximately 3000RU) was stably captured to streptavidin coupled SA chips according to the manufacture's protocol (GE Health Sciences Inc.). The running buffer used was HBS-EP (20 mM Hepes pH 7.4, 150 mM NaCl, 3 mM EDTA, 0.05% P-20) plus 5% DMSO with a flow rate of 40 μl/min. For SPR analysis, 5 different concentrations of each exemplary compound of the application were sprayed into 96 or 384 well plates using an HP D300 digital dispenser. The concentration ranged from about 195 nM to about 12 nM in a two-fold series. […] Curve fitting and KD calculations were performed with the Biacore T200 Evalutation software (GE Health Sciences Inc).

`C[C@@H]1CN(c2cc(F)c(-c3cc(C(N)=O)c(F)cc3F)c(F)c2NC(=O)c2c[nH]c(=O)cc2C(F)(F)F)C[C@H](C)N1C` [Example 30, N-(5′-carbamoyl-2,2′,4′,6-tetrafluoro-4-((3S,5R)-3,4,5-trimethylpiperazin-1-yl)-[1,1′-biphenyl]-3-yl)-6-oxo-4-(trifluoromethyl)-1,6-dihydropyridine-3-carboxamide]: on WDR5 [1], the IC50 (commonly the concentration that gives 50% inhibition) was 85.9 nM. In the assay with MV4-11 cells, the EC50 – broadly, the concentration giving half of the maximal effect – was found to be 18500 nM. The Kd – broadly, the equilibrium constant for the complex coming apart – on WDR5 [2] stood at 23.6 nM.

As for `C[C@@H]1CN(c2ncc(-c3c(F)cc(N4C[C@@H](C)N(C)[C@@H](C)C4)c(NC(=O)c4c[nH]c(=O)cc4C(F)(F)F)c3F)cn2)CCO1` [Example 128, N-(2,4-difluoro-3-(2-((R)-2-methylmorpholino)pyrimidin-5-yl)-6-((3S,5R)-3,4,5-trimethylpiperazin-1-yl)phenyl)-6-oxo-4-(trifluoromethyl)-1,6-dihydropyridine-3-carboxamide], the IC50 on WDR5 [1] is 12.8 nM. In addition, the EC50 in the assay with MV4-11 cells is 5.85 nM. On WDR5 [2], the Kd is 0.69 nM.

For the compound `C[C@H]1CN(c2cc(F)c(C3=CCN(C(=O)c4csc(CN(C)C)n4)CC3)c(F)c2NC(=O)c2c[nH]c(=O)cc2C(F)F)CCN1C` [Example 187, (S)-4-(difluoromethyl)-N-(3-(1-(2-((dimethylamino)methyl)thiazole-4-carbonyl)-1,2,3,6-tetrahydropyridin-4-yl)-6-(3,4-dimethylpiperazin-1-yl)-2,4-difluorophenyl)-6-oxo-1,6-dihydropyridine-3-carboxamide], the IC50 on WDR5 [1] was determined as 14.7 nM. Moreover, the EC50 in the assay on MV4-11 cells was 913 nM. On WDR5 [2], the Kd came out at 2.95 nM.

For the compound `COc1cnc(N2CC=C(c3c(F)cc(N4C[C@@H](C)N(C)[C@@H](C)C4)c(NC(=O)c4c[nH]c(=O)cc4C(F)(F)F)c3F)CC2)nc1` [Example 137, N-(2,4-difluoro-3-(1-(5-methoxypyrimidin-2-yl)-1,2,3,6-tetrahydropyridin-4-yl)-6-((3S,5R)-3,4,5-trimethylpiperazin-1-yl)phenyl)-6-oxo-4-(trifluoromethyl)-1,6-dihydropyridine-3-carboxamide], the IC50 on WDR5 [1] amounted to 17 nM. In addition, the EC50 with MV4-11 cells came out at 75.1 nM. The Kd at WDR5 [2] was found to be 2.57 nM.

With `C[C@@H]1CN(c2cc(F)c(-c3cnc4c(c3)OCCO4)c(F)c2NC(=O)c2c[nH]c(=O)cc2C(F)(F)F)C[C@H](C)N1C` [Example 73, N-(3-(2,3-dihydro-[1,4]dioxino[2,3-b]pyridin-7-yl)-2,4-difluoro-6-((3S,5R)-3,4,5-trimethylpiperazin-1-yl)phenyl)-6-oxo-4-(trifluoromethyl)-1,6-dihydropyridine-3-carboxamide], at WDR5 [1], the IC50 amounted to 16.8 nM. Further, the EC50 with MV4-11 cells is 110 nM. The Kd on WDR5 [2] was found to be 1.26 nM.

For the compound `C[C@H]1CN(c2cc(F)c(C3=CCCN(c4ncccn4)C3)c(F)c2NC(=O)c2c[nH]c(=O)cc2C(F)F)CCN1C` [Example 54, (S)-4-(difluoromethyl)-N-(6-(3,4-dimethylpiperazin-1-yl)-2,4-difluoro-3-(1-(pyrimidin-2-yl)-1,2,5,6-tetrahydropyridin-3-yl)phenyl)-6-oxo-1,6-dihydropyridine-3-carboxamide], the IC50 at WDR5 [1] came to 28.8 nM. In addition, in the assay with MV4-11 cells, the EC50 was 693 nM. Also, the Kd on WDR5 [2] stood at 3.83 nM.

For `C[C@H]1CN(c2cc(F)c(C3=CCN(c4ncc(F)cn4)C3)c(F)c2NC(=O)c2c[nH]c(=O)cc2C(F)F)CCN1C` [Example 91, (S)-4-(difluoromethyl)-N-(6-(3,4-dimethylpiperazin-1-yl)-2,4-difluoro-3-(1-(5-fluoropyrimidin-2-yl)-2,5-dihydro-1H-pyrrol-3-yl)phenyl)-6-oxo-1,6-dihydropyridine-3-carboxamide], the IC50 on WDR5 [1] amounted to 16 nM. For the same compound, the concentration for a half-maximal effect (EC50) in the assay on MV4-11 cells was 38.3 nM. The Kd on WDR5 [2] amounted to 1.55 nM.

For `C[C@@H]1CN(c2ccc(-c3c(F)cc(N4CCN(C)[C@@H](C)C4)c(NC(=O)c4c[nH]c(=O)cc4C(F)F)c3F)cn2)C[C@H](C)O1` [Example 182, 4-(Difluoromethyl)-N-(3-(6-((2S,6R)-2,6-dimethylmorpholino)pyridin-3-yl)-6-((S)-3,4-dimethylpiperazin-1-yl)-2,4-difluorophenyl)-6-oxo-1,6-dihydropyridine-3-carboxamide], the IC50 on WDR5 [1] was 25.4 nM. In the assay with MV4-11 cells, the EC50 worked out at 31 nM. Further, on WDR5 [2], the Kd is 1.15 nM.

On to `CC(C)OC(=O)N1CC=C(c2c(F)cc(N3C[C@@H](C)N(C)[C@@H](C)C3)c(NC(=O)c3c[nH]c(=O)cc3C(F)(F)F)c2F)C1` [Example 134], for which the IC50 at WDR5 [1] is 11.4 nM. In addition, the EC50 in the assay on MV4-11 cells was found to be 55.8 nM. The Kd at WDR5 [2] stood at 0.87 nM.

For the compound `C[C@@H]1CN(c2cc(F)c(-c3ccc(C(N)=O)c(F)c3)c(F)c2NC(=O)c2c[nH]c(=O)cc2C(F)(F)F)C[C@H](C)N1C` [Example 25, N-(4′-carbamoyl-2,3′,6-trifluoro-4-((3S,5R)-3,4,5-trimethylpiperazin-1-yl)-[1,1′-biphenyl]-3-yl)-6-oxo-4-(trifluoromethyl)-1,6-dihydropyridine-3-carboxamide], the IC50 on WDR5 [1] came to 19.5 nM. Moreover, the EC50 with MV4-11 cells came to 148 nM. For the same compound, at WDR5 [2], the Kd worked out at 2.05 nM.

Take `CC(C)[C@@H]1CN(c2nccc(-c3c(F)cc(N4CCN(C)[C@@H](C)C4)c(NC(=O)c4c[nH]c(=O)cc4C(F)F)c3F)n2)CCO1` [Example 124, 4-(Difluoromethyl)-N-(6-((S)-3,4-dimethylpiperazin-1-yl)-2,4-difluoro-3-(2-((R)-2-isopropylmorpholino)pyrimidin-4-yl)phenyl)-6-oxo-1,6-dihydropyridine-3-carboxamide]: at WDR5 [1], the IC50 was 12.4 nM. Besides, in the assay with MV4-11 cells, the EC50 was 55.9 nM. In addition, the Kd on WDR5 [2] turned out to be 0.8 nM.

In the case of `C[C@H]1CN(c2ccc(-c3c(F)cc(N4CCN(C)[C@@H](C)C4)c(NC(=O)c4c[nH]c(=O)cc4C(F)F)c3F)cn2)CCO1` [Example 183, 4-(Difluoromethyl)-N-(6-((S)-3,4-dimethylpiperazin-1-yl)-2,4-difluoro-3-(6-((S)-2-methylmorpholino)pyridin-3-yl)phenyl)-6-oxo-1,6-dihydropyridine-3-carboxamide], the IC50 at WDR5 [1] worked out at 22.7 nM. In addition, in the assay on MV4-11 cells, the EC50 was 24.4 nM. At WDR5 [2], the Kd was determined as 1.34 nM.

For `C[C@@H]1CN(c2cc(F)c(-c3cnc(N4CCOCC4)nc3)c(F)c2NC(=O)c2ccc(F)cc2C(F)(F)F)C[C@H](C)N1C` [Example 10, N-(2,4-difluoro-3-(2-morpholinopyrimidin-5-yl)-6-((3S,5R)-3,4,5-trimethylpiperazin-1-yl)phenyl)-4-fluoro-2-(trifluoromethyl)benzamideformic acid], at WDR5 [1], the IC50 worked out at 10 nM. The EC50 in the assay with MV4-11 cells is 59.2 nM. Besides, the Kd at WDR5 [2] is 0.33 nM.

Take `CC(C)OC(=O)N1CC=C(c2c(F)cc(N3C[C@@H](C)N(C)[C@@H](C)C3)c(NC(=O)c3c[nH]c(=O)cc3C(F)(F)F)c2F)CC1` [Example 133]: at WDR5 [1], the IC50 was 12.3 nM. Moreover, the EC50 with MV4-11 cells came out at 58.5 nM. On WDR5 [2], the Kd was 2.62 nM.

Consider `C[C@@H]1CN(c2ncc(-c3c(F)cc(N4CCN(C)[C@@H](C)C4)c(NC(=O)c4c[nH]c(=O)cc4C(F)(F)F)c3F)cn2)C[C@@H](C)O1` [Example 85, N-(3-(2-((2R,6R)-2,6-dimethylmorpholino)pyrimidin-5-yl)-6-((S)-3,4-dimethylpiperazin-1-yl)-2,4-difluorophenyl)-6-oxo-4-(trifluoromethyl)-1,6-dihydropyridine-3-carboxamide], for which, on WDR5 [1], the IC50 amounted to 13.8 nM. In addition, in the assay on MV4-11 cells, the EC50 is 10.3 nM. In addition, at WDR5 [2], the Kd was determined as 1.24 nM.

Values taken from patent US20200385371A1 (Propellon Therapeutics Inc., priority 2017, published 2020).
